Results reported in patent publication US20260166182A1, “CYANINE-BASED FLUOROPHORES” (The General Hospital Corporation, priority 2022, published 2026).

Legend:
[1] = Optical properties and NIR-II quantum yield in 5% BSA saline; type: physicochemical
Description: Fluorescence Quantum yield measurement and physicochemical properties: The absorption and emission spectra of fluorophores were measured in 5% BSA saline using UV/Vis/NIR spectrometers (USB2000+VIS+NIR+ES and Flame-NIR, Ocean Insight, Dunedin, FL). Fluorescence emission spectra were collected by NIR excitation with an 808-nm laser. To calculate NIR-II fluorescence quantum yield, the following equation was used:
[formula] • where QYsample is the QY of SH1, QYref is the QY of ICG in 30% FBS supplemented with 50 mM HEPES, nsample and nref are the refractive indices of SH1 and ICG solutions which are both water (1.33) in this case. In silico calculations of molecular weight, the distribution coefficient (LogD at pH 7.4), surface molecular charge, polarizability, and 3D molecular surface area were performed using MarvinSketch (ChemAxon, Budapest, Hungary).

LLC cells = test: Cytotoxicity study (CCK-8 cell proliferation); type: cell-based; conditions: 24 h incubation
Description: Cytotoxicity study: 200 μL of cell suspension was added into a 96-well plate to have 5000 cells in each well. The plate was pre-incubated for 24 hours in a humidified incubator for cells to attach on the bottom of the plate. Stock solutions of SH1, IR-780, and DMSO were premixed with the cell culture media (DMEM containing 10% FBS) to 50 μM, and premixed solutions were filtered using a syringe filter ([…]), and then were diluted to final concentrations of 1-25 μM. After cells reached the desired density (40-50% confluency), the existing media was removed and exchanged with the above solutions at certain concentrations. The plate was further incubated for 24 h. The cell proliferation was determined using a CCK-8 Kit.

[2] = Photostability under xenon lamp irradiation; type: physicochemical; conditions: 2 h
Description: Optical Study, Photostability, Physicochemical Properties, and DFT Calculation: 1 mM stock solution in DMSO of the synthesized fluorophores was prepared before starting any spectral measurement. Optical properties for the synthesized fluorophores were measured in four different solvents (EtOH, DMSO, HEPES, and PBS). Absorbance spectra were measured in a Varian Cary 50 absorbance spectrophotometer (190-1100 nm). Fluorescence emission and photostability were measured and emission spectra were recorded on a Shimadzu RF-5301PC spectrofluorometer. Physicochemical properties (Log D, molecular mass, TPSA, H bond D/A, polarizability, molecular volume, and rotatable bonds) were predicted by ChemAxon (JChem plugin). Theoretical calculations of frontier molecular orbitals (FMOs) for the optimized structures of selected fluorophores were calculated based on DFT calculations at the B3LYP/6-311G(d,p) level.
In consideration of theranostic (therapeutics and diagnostic) applications, NIR cyanine fluorophores are synthesized for fluorescence imaging, photodynamic therapy (PDT), photothermal therapy (PTT), optoacoustic imaging, and cancer immunotherapy. One of the approaches before using these fluorophores in those applications is to study their biodistribution and clearance pattern in vivo. […] The power density of 150 W is much higher than the required power for fluorescence imaging, considering that the time it takes for a fluorophore to clear from the background and accumulate in sufficient quantities in the targeted tissues is unknown. […] By considering this, an aliquot of the stock solution (1 mM in DMSO) was diluted in ethanol, and the fluorescence intensity was measured at the excitation wavelength same as their absorption maxima (nm). Photodegradation rates were measured every 20 min intervals for the selected fluorophores based on the % reduced fluorescence intensity starting from 100%. […] The data were collected in every 20 min intervals under continuous irradiation with a xenon lamp at 150 W for 2 h and presented based on the % reduced fluorescence intensity starting from 100%. […]

Compound: CCCCN1/C(=C/C=C2\CCCC(/C=C/C3=[N+](CCCC)c4ccc(Cl)cc4C3(C)C)=C2Cl)C(C)(C)c2cc(Cl)ccc21 [SH1, 1-butyl-2-((E)-2-((E)-3-(2-((E)-1-butyl-5-chloro-3,3-dimethylindolin-2-ylidene)ethylidene)-2-chlorocyclohex-1-en-1-yl)vinyl)-5-chloro-3,3-dimethyl-3H-indol-1-ium]
- NIR-II tail emission up to ([1]; 5% BSA saline): ~1250 nm
- extinction coefficient ([1]; 5% BSA saline): 333,600 M^−1 cm^−1
- fluorescence emission maximum (NIR-I) ([1]; 5% BSA saline): 820 nm
- quantum yield ([1]; 5 w/v % BSA saline): 11%
- brightness in the NIR-II region relative to ICG ([1]; 808 nm excitation, 1,070 nm LP): 2.2 fold
- brightness in the NIR-II region relative to IR-780 ([1]; 808 nm excitation, 1,070 nm LP): 1.7 fold
- fluorescence brightness in the NIR-II region compared with ICG ([1]; NIR-II region): 225%
- concentration that did not affect cell proliferation (LLC cells): up to 10 μM
- photodegradation (% reduced fluorescence intensity) [2]: I-4
